In patent publication US20230286973A1, “PROTEIN SECRETION INHIBITORS” (KEZAR LIFE SCIENCES, priority 2020, published 2023):

Columns and labels:
[1] = test system: multiple myeloma cell line U266B1; assay: U266 Cell Viability Assay; assay type: cell-based, human; conditions: Homo sapiens, U-266, 48 h, U266B1 cells, Celltiter-Glo
Method in brief: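 Luminescent ATP read-out (CellTiter-Glo) after 48 h compound exposure at 37° C., 5% CO2; cells maintained in RPMI 1640/10% FBS/2 mM glutamine/pen-strep, compounds diluted in DMSO/media.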

[2] = test system: PD1-ss+10aa/Gaussia Luciferase; assay: Dox-Induced PD1-ss-Gluc Assay; assay type: cell-based; conditions: 24 hr Dox induction; 293FRT/TO cells; read-out: 24 hr Dox Inducible PD1ssGluc 293FRT/TO: Mean IC50
Method in brief: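 Doxycycline-induced expression of a PD1-ss+10aa/Gaussia luciferase reporter is measured in stable Flp-In 293 T-REx cells. Compound dilutions containing doxycycline are added one day after plating and incubated at 37 °C, 5% CO2. Values for unassigned stereocentres refer to stereoisomer mixtures.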

[3] = Liver Microsome Stability Assay (monkey); conditions: monkey liver microsomes, with NADPH, 1.0 uM compound
Protocol: (§1) Stability of a compound was assessed in the presence of liver microsomes from various sources—mouse, rat, monkey and human liver microsomes. 1.0 uM compound, 0.4% DMSO in 0.1 M Potassium Phosphate with 1.0 mg/mL liver microsomes, were incubated at 37° C. with or without 1 mM NADPH. The samples were quenched at 0, and 30 minutes.

[4] = Liver Microsome Stability Assay (human); conditions: human liver microsomes, with NADPH, 1.0 uM compound
Protocol: as §1

[5] = test system: multiple myeloma cell line NCI-H929; assay: H929 Cell Viability Assay; assay type: cell-based, human; conditions: Homo sapiens, NCI-H929, 48 h, NCI-H929 cells, Celltiter-Glo
Method in brief: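 Cells in RPMI 1640/10% FBS; compound dilutions in DMSO/media; 48 h, 37° C, 5% CO2; CellTiter-Glo luciferase readout for viability.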

[6] = test system: HER3-ss+4aa/Gaussia Luciferase; assay: Dox-Induced Her3-ss-Gluc Assay; assay type: cell-based; conditions: 24 hr Dox induction; 293FRT/TO cells; read-out: 24 hr Dox Inducible Her3(ss + 4)Gluc 293FRT/TO: Mean IC50
Method in brief: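 Flp-In 293 T-REx cells, stable HER3-ss+4aa/Gaussia luciferase insert, hygromycin/blasticidin selected; plated day before; compound in DMSO/media + doxycycline; 37° C., 5% CO2.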

[7] = test system: TNFα-FL/Gaussia Luciferase; assay: Dox Induced TNFα-FL-Gluc Assay; assay type: cell-based; conditions: for IC50: 24 hr Dox induction, 293FRT/TO cells, read-out: 24 hr Dox Inducible TNFaFLGluc 293FRT/TO: Mean IC50; for 24 hr Dox Inducible TNFaFLGluc 293FRT/TO: TNF/PD1: ratio of TNFaFLGluc IC50 to PD1ssGluc IC50
Method in brief: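 Cell line: stable Flp-In 293 T-REx, TNFα-FL(1-233)-Gaussia luciferase fusion, T-REx-inducible. Plated day -1; compounds in DMSO/media + doxycycline, 37 °C, 5% CO2. Undefined stereocentres = mixture tested.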

[8] = Liver Microsome Stability Assay (mouse); conditions: mouse liver microsomes, with NADPH, 1.0 uM compound
Protocol: as §1

[9] = test system: IL-2-FL/Gaussia Luciferase; assay: Dox Induced IL2-FL-Gluc Assay; assay type: cell-based; conditions: for IC50: 24 hr Dox induction, 293FRT/TO cells, read-out: 24 hr Dox Inducible IL2FLGluc 293FRT/TO: Mean IC50; for 24 hr Dox Inducible IL2FLGluc 293FRT/TO: IL2/PD1: ratio of IL2FLGluc IC50 to PD1ssGluc IC50
Method in brief: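 Stable Flp-In 293 T-REx line, Tet-regulated IL-2 (aa 1-153)–Gaussia luciferase fusion; hygromycin/blasticidin selected. Plated day -1; compound + doxycycline added next day; 37° C, 5% CO2.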

[10] = Liver Microsome Stability Assay (rat); conditions: rat liver microsomes, with NADPH, 1.0 uM compound
Protocol: as §1

Compound	EC50 [1] [µM]	IC50 [2] [µM]	Liver Microsome Stability (Multiple Species): Monkey - % Remaining after 30 min w/NADPH [3] [%]	Liver Microsome Stability (Multiple Species): Human - % Remaining after 30 min w/NADPH [4] [%]	EC50 [5] [µM]	IC50 [6] [µM]	IC50 [7] [µM]	24 hr Dox Inducible TNFaFLGluc 293FRT/TO: TNF/PD1 [7]	Liver Microsome Stability (Multiple Species): Mouse - % Remaining after 30 min w/NADPH [8] [%]	IC50 [9] [µM]	24 hr Dox Inducible IL2FLGluc 293FRT/TO: IL2/PD1 [9]	Liver Microsome Stability (Multiple Species): Rat - % Remaining after 30 min w/NADPH [10] [%]
Cc1cccc2nc(/C=C/c3csc(NC(=O)c4cccn4Cc4ccnc(F)c4)n3)cn12 [Compound B70, (E)-1-((2-fluoropyridin-4-yl)methyl)-N-(4-(2-(5-methylimidazo[1,2-a]pyridin-2-yl)vinyl)thiazol-2-yl)-1H-pyrrole-2-carboxamide]	> 25	0.499	0.19	0.35	> 25	> 25	> 25	>50.1	2.19	> 25	>50	1.37
O=C(Nc1nc(/C=C/c2cn3c(n2)CCC3)cs1)c1cccn1Cc1ccncc1 [Compound B71, (E)-N-(4-(2-(6,7-dihydro-5H-pyrrolo[1,2-a]imidazol-2-yl)vinyl)thiazol-2-yl)-1-(pyridin-4-ylmethyl)-1H-pyrrole-2-carboxamide]	> 25	0.298	0.03	0.03	> 25	> 25	> 25	>83.9	0.16	> 25	>84	0.1
CC(C)c1nc(/C=C/c2csc(NC(=O)c3cccn3Cc3ccncc3)n2)cn1C [Compound B72, (E)-N-(4-(2-(2-isopropyl-1-methyl-1H-imidazol-4-yl)vinyl)thiazol-2-yl)-1-(pyridin-4-ylmethyl)-1H-pyrrole-2-carboxamide]	> 25	7.15	0.06	0.95	> 25	10.6	> 25	>3.50	0.03	> 25	>3.5	0.16
CC(C)c1cccc2nc(/C=C/c3csc(NC(=O)c4cccn4Cc4ccnc(F)c4)n3)cn12 [Compound B73, (E)-1-((2-fluoropyridin-4-yl)methyl)-N-(4-(2-(5-isopropylimidazo[1,2-a]pyridin-2-yl)vinyl)thiazol-2-yl)-1H-pyrrole-2-carboxamide]	> 25	0.486	0.48	0.81	> 25	> 25	> 25	>51.4	1.62	> 25	>51	3.87
CC(C)n1ccc(/C=C/c2csc(NC(=O)c3cccn3Cc3ccnc(F)c3)n2)n1 [Compound B74, (E)-1-((2-fluoropyridin-4-yl)methyl)-N-(4-(2-(1-isopropyl-1H-pyrazol-3-yl)vinyl)thiazol-2-yl)-1H-pyrrole-2-carboxamide]	5.49	0.418	0.13	0.44	5.29	4.08	9.97	23.9	3.41	5.36	13	0.43
CC(C)n1ccc(/C=C/c2csc(NC(=O)c3cccn3Cc3ccncc3)n2)n1 [Compound B75, (E)-N-(4-(2-(1-isopropyl-1H-pyrazol-3-yl)vinyl)thiazol-2-yl)-1-(pyridin-4-ylmethyl)-1H-pyrrole-2-carboxamide]	6.75	0.446	0.23	2.26	7.16	5.67	10.3	23	0.94	17.1	38	0.27
CC(C)c1cccc2nc(/C=C/c3csc(NC(=O)c4cccn4Cc4ccncc4)n3)cn12 [Compound B76, (E)-N-(4-(2-(5-isopropylimidazo[1,2-a]pyridin-2-yl)vinyl)thiazol-2-yl)-1-(pyridin-4-ylmethyl)-1H-pyrrole-2-carboxamide]	> 25	0.419	0.25	0.76	> 25	1.6	> 25	>59.6	0.37	> 25	>60	0.52
Cc1cccc2nc(/C=C/c3csc(NC(=O)c4cccn4Cc4ccncc4)n3)cn12 [Compound B77, (E)-N-(4-(2-(5-methylimidazo[1,2-a]pyridin-2-yl)vinyl)thiazol-2-yl)-1-(pyridin-4-ylmethyl)-1H-pyrrole-2-carboxamide]	> 25	0.491	0.59	1.11	> 25	11.5	> 25	>50.9	2.21	> 25	>51	1.67
CC(C)c1c(/C=C/c2csc(NC(=O)c3cccn3Cc3ccnc(F)c3)n2)ncn1C [Compound B81, (E)-1-((2-fluoropyridin-4-yl)methyl)-N-(4-(2-(5-isopropyl-1-methyl-1H-imidazol-4-yl)vinyl)thiazol-2-yl)-1H-pyrrole-2-carboxamide]	> 25	0.228	0.06	0.58	16.9	15.6	> 25	>109	11.7	> 25	>110	9.66
